Experimental data published in US12570617B2 (Kyungpook National University Industry-Academic Cooperation …, priority 2020, dated 2026).

Legend:
ghrelin receptor [1] = molecular target: T1, ghrelin receptor (Homo sapiens, UniProt Q92847); test: Intracellular calcium influx in HEK293 cells overexpressing a ghrelin receptor; assay type: cell-based; design: host or cells: HEK293 (ATCC); settings: read-out: EC50, concentration capable of inducing 50% intracellular calcium influx
Method: Human embryonic kidney 293 (HEK293) cells were purchased from ATCC and cultured in a DMEM medium comprising 10% FBS at 37° C. and in 5% CO2.
After treating the cells with 100 ul of a wash buffer, fluorescently labeled intracellular calcium was imaged at an excitation wavelength of 485 nm and an emission wavelength of 520 nm for 1 minute at a shutter interval of 10 seconds under a laser scanning confocal microscope equipped with a temperature and humidity control equipment. […] Intracellular calcium fluorescence intensity by treatment with compounds was quantified by calculating same based on the fluorescence intensity when not treated with compounds.
Target sequence in this assay (Q92847 whole entry): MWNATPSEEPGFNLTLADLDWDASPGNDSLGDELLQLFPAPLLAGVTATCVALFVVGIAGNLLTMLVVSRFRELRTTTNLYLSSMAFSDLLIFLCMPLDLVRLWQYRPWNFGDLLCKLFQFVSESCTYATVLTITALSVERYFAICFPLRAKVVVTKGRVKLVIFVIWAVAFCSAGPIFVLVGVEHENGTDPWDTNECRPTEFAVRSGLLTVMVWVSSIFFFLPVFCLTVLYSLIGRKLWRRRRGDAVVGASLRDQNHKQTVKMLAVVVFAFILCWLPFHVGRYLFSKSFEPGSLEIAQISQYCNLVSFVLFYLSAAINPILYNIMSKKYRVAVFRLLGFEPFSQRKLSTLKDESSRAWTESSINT

[2] = system: 170 G protein-coupled receptors; test: G protein coupled receptor agonist and antagonist analysis, panel of 170 receptors (Eurofins Discovery); assay type: cell-based; design: dose or concentration left out as unconfirmed; settings: alone (agonist effect) or together with ligands for each receptor (antagonist effect)
Method: (§1) The efficacy of triazole compounds […] as agonists and antagonists for a total of 170 types of G protein-coupled receptors was performed by Eurofins Discovery.
(§2) The family of G protein-coupled receptors comprises many types of receptors comprising a ghrelin receptor. It was checked whether or not the triazole compounds have efficacy as agonists or antagonists of different types of G protein-coupled receptors.

[3] = system: cancer cachexia mouse model; test: Cancer cachexia mouse model (CT26): grip test, Rota-rod test, cancer size, body weight, feed intake, fat and muscle weight; assay type: in vivo; settings: cancer cachexia mice; for body weight / cancer size / muscle mass / subcutaneous fat weight / total fat weight / visceral fat weight / daily feed intake: oral 10 mg/kg daily; for muscle mass / subcutaneous fat weight / total fat weight / visceral fat weight: 20th day
Method: Cultured 1×10^6 cells were subcutaneously injected into the right side of the abdomen of 10-week-old mice. The size of the cancer grown in the right abdomen, body weight, and feed intake were measured once every time after cell injection, and 10 mg/kg of a triazole compound was orally administered daily from the 9th day. On the 18th day of cancer cell injection, each of the grip test and Rota-rod test for evaluating the muscle function was performed for 1 day. On the 20th day, subcutaneous fat, visceral fat and muscle (femur, calf) of the mouse were separated and weighed.
For the evaluation of muscle function, the grip test was performed by holding the mouse by having the mouse hold the metal grid attached to the grip strength meter, holding the tail of the mouse, and pulling it from behind horizontally. The force applied to the metal grid immediately before losing the grip was recorded in the measuring instrument as the maximum tension in g, and the entire process was performed 9 times per subject to record the average value. In the Rota-rod test (Ugo Basile, Comerio, VA, Italy), Rota-rod exercise was performed at least three times at a rotational speed of 4 rpm by using a machine equipped with a rod with the diameter of 3 cm appropriately processed to provide grip to measure the endurance time of the tested animals in seconds and record the average value. Each Rota-rod behavior test was not to exceed 5 minutes per time.

ghrelin receptor [4] = molecular target: T1, ghrelin receptor; test: G protein coupled receptor agonist analysis (Eurofins Discovery), ghrelin receptor; assay type: cell-based; design: Eurofins Discovery; dose or concentration left out as unconfirmed; settings: compound alone (agonist effect)
Method: as §1, §2
Target sequence in this assay (Q92847 whole entry, species assumed): as the sequence (Q92847 whole entry) above

[5] = system: postoperative ileus (POI) mouse model; test: Colon transit time of feces in postoperative ileus (POI) mouse model; assay type: in vivo; settings: POI mice; for colon transit time of feces: oral 30 mg/kg 4 hours after POI surgery; for colon transit time of feces / feed intake: vs PBS; for body weight / feed intake: 24 hours
Method: (§3) Mice aged 6-8 weeks were fasted for one day and then anesthetized with a mixture of ketamine and xylazine. The abdomen and peritoneum were then incised, and the small intestine was exposed on a sterile gauze pad. Manipulation was performed from the duodenum to the cecum for 5 minutes by using a sterile cotton swab. After surgery, the abdomen was sutured and the mice were allowed to recover for 4 hours in a cage maintained at 32 degrees.
To evaluate the colon transit time of feces, 200 ul of trypan blue dye was injected into the proximal colon before suturing after POI surgery. A triazole compound (30 mg/kg) was orally administered 4 hours after POI surgery. The mouse was transferred to a metabolic cage, and the weighed feed was administered thereinto, and the time at which the first feces stained with trypan blue appeared was measured for 24 hours. At the 24th hour, the number and weight of feces were measured, and the weight of the consumed feed and the mouse's body weight were measured.

[6] = system: postoperative ileus (POI) mouse model; test: Delayed gastric emptying in postoperative ileus (POI) mouse model; assay type: in vivo; settings: POI mice, oral 10, 20, 30 mg/kg 20 hours after POI surgery
Method: as §3
Triazole compounds (10 mg/kg, 20 mg/kg and 30 mg/kg) were orally administered 20 hours after POI surgery. […] After 30 minutes, the stomach of the mouse was removed and put into a 0.1N NaOH 2 ml solution to homogenize same. 3 ml of 0.1N NaOH solution was added and centrifuged at 3000 rpm at 4 degrees for 10 minutes. After adding […] of 20% trichloroacetic acid to the supernatant, the mixture was centrifuged at 3000 rpm at 4 degrees for 10 minutes. […] The percentage of the gastric emptying delay was calculated by (1−(absorbance of test sample)/(baseline control absorbance)×100.

Row | EC50 (ghrelin receptor [1]) | specificity among 170 G protein-coupled receptors (agonist or antagonist efficacy) [2] | efficacy as a ghrelin receptor agonist (ghrelin receptor [4]) | SMILES | body weight [3] | cancer size [3] | muscle mass ([3]; vs Vehicle) | subcutaneous fat weight ([3]; vs Vehicle) | total fat weight ([3]; vs Vehicle) | visceral fat weight ([3]; vs Vehicle) | daily feed intake ([3]; vs Vehicle) | colon transit time of feces [5] | body weight ([5]; oral 30 mg/kg) | feed intake ([5]; oral 30 mg/kg) | number and weight of feces ([5]; oral 30 mg/kg, at the 24th hour) | delayed gastric emptying [6] | muscle strength function (Grip test and Rota-rod test) ([3]; oral 10 mg/kg once daily from 9th day, tested 18th day, vs Vehicle)
1 | 128 nM | – | – | CCCCCCCCCCCCn1cc(C(N)(CO)CO)nn1 [KARI001, 2-amino-2-(1-dodecyl-1H-1,2,3-triazol-4-yl)propane-1,3-diol] | – | – | – | – | – | – | – | – | – | – | – | – | –
2 | – | ghrelin receptor-specific agonist | 83.7% | CCCCCCCCCn1cc(C(N)(CO)CO)nn1 [KARI201, 2-amino-2-(1-nonyl-1H-1,2,3-triazol-4-yl)propane-1,3-diol] | did not affect | did not affect | increased | increased | increased | increased | increased | significantly reduced | no change | increased | increased | significant improvement | –
3 | 189 nM | – | – | CCCCCCCCCCn1cc(C(N)(CO)CO)nn1 [KARI101, 2-amino-2-(1-decyl-1H-1,2,3-triazol-4-yl) propane-1,3-diol] | did not affect | did not affect | increased | increased | increased | increased | increased | significantly reduced | no change | increased | – | significant improvement | significantly improved
